Experimental data published in patent US20180353462A1, “[…] AGENTS […] FLAVONOID DERIVATIVES TARGETING KINASES, SIRTUINS AND ONCOGENIC AGENTS FOR THE TREATMENT OF CANCERS” (priority 2015, published 2018).
Where two headings read alike, the source gives them in different places.

How the values were obtained:
[1] = target: T1, KIT(L576P) (Homo sapiens, UniProt P10721, L576P); assay: Kinase competition binding assay, KIT(L576P); conditions: Table 1 kinase panel
T1 construct: made in house
Protocol: (§1) Cannabis flavonoids and their analogs were subjected to kinase inhibition assay. The compounds were first screened at a single concentration of 10 μM in the primary assay. […]. To determine the kd or IC50 values, competition binding assays were established, authenticated and executed as described previously. Fabian et al., “A Small Molecule-Kinase Interaction Map For Clinical Kinase Inhibitors.”, Nat Biotechnol, 23(3):329-36, Epub (2005). See also, Karaman et al., “A Quantitative Analysis Of Kinase Inhibitor Selectivity”, Nat. Biotechnol. […] For most assays, kinases were fused to T7 phage strains (Fabian, supra) and for the other assays, kinases were produced in HEK-293 cells after which they were tagged with DNA for quantitative PCR detection. In general, full-length constructs were used for small, single domain kinases, and catalytic domain constructs for large multi-domain kinases. The binding assays utilized streptavidin-coated magnetic beads treated with biotinylated small molecule ligands for 30 minutes at room temperature which generated affinity resins for the kinase assays. The liganded beads were blocked with excess biotin and washed with blocking buffer (SeaBlock (Pierce), 1% BSA, 0.05% Tween 20, 1 mM DTT) to remove unbound ligand and to reduce non-specific phage binding. […] Test compounds were prepared as 40× stocks in 100% DMSO and diluted directly into the assay (Final DMSO concentration=2.5%). All reactions were performed in polypropylene 384-well plates in a final volume of 0.04 ml. […] The beads were then re-suspended in elution buffer (1×PBS, 0.05% Tween 20, 0.5 μM non-biotinylated affinity ligand) and incubated at room temperature with shaking for 30 minutes. The kinase concentration in the eluates was measured by quantitative PCR. An illustration of the kinase interaction process is presented below. Kd/IC50 values were determined using a standard dose response curve using the hill equation. Curves were fitted using a non-linear least square fit with the Levenberg-Marquardt algorithm.
(§2) The compound(s) were screened at 10 μM and results for primary screen binding interactions are reported as ‘% Ctrl’, where lower numbers indicate stronger hits in the matrix.

[2] = target: T2, RIOK1 (Homo sapiens, UniProt Q9BRS2); assay: Kinase competition binding assay, RIOK1; conditions: Table 1 kinase panel
T2 construct: T7 phage fusion (most assays) or DNA tag for qPCR (HEK-293-made kinases); made in house
T2 sequence (Q9BRS2 1-568): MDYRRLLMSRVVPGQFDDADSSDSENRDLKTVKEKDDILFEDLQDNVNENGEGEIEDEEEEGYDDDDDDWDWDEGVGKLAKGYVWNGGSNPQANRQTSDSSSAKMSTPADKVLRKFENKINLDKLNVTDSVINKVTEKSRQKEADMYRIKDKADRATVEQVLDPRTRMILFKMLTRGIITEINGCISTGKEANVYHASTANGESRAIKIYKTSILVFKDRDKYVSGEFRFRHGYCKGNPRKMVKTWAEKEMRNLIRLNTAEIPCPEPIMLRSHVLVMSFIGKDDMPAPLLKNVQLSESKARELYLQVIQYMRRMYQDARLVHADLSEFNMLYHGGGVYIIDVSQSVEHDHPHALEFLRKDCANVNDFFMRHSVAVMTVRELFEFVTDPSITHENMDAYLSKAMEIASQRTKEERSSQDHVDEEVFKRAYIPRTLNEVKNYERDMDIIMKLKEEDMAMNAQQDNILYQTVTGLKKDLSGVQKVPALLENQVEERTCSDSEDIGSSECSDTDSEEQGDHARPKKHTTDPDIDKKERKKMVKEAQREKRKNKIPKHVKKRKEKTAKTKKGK
Protocol: as §1, §2

[3] = target: T3, PDGFRa(T674I) (Homo sapiens, UniProt P16234, T674I); assay: Kinase competition binding assay, PDGFRa(T674I); conditions: Table 1 kinase panel
T3 construct: catalytic domain constructs for large multi-domain kinases; T7 phage fusion (most assays) or DNA tag for qPCR (HEK-293-made kinases); made in house
T3 sequence (P16234 593-954 T674I limits assumed): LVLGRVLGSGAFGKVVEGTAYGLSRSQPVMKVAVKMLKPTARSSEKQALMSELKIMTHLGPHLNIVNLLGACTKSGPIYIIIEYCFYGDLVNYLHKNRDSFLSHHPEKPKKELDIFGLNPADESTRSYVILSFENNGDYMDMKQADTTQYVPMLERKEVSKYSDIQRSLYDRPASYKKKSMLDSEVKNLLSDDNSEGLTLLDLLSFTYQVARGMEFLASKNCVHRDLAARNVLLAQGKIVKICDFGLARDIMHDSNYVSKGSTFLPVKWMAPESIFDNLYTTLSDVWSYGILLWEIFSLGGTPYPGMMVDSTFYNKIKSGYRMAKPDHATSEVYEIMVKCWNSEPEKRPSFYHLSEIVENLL
Protocol: as §1, §2

[4] = test system: MV4-11 (Leukemia); assay: WST-1 anticancer cell proliferation assay, MV4-11; type: cell-based
Protocol: (§3) Anticancer activity was tested against several standard cancer cell lines including brain, breast, Kaposi sarcoma, leukemia, lung, melanoma, tenosynovial giant cell tumor, ovarian, pancreatic, colon and prostate cancer. Cells were trypsinized and plated into 96 well plates in 50 μl of media and incubated overnight. The next day approximately 18 hours after plating, 50 μl of media containing the required flavonoid-based pharmaceutical composition was added per well. Cells were plated at a density so that 72 hours post drug addition, the cells will be in log phase (500)-2000 cells/well). The compounds and extracts were solubilized in Dimethyl sulfoxide (DMSO). The cells are allowed to proliferate for 72 hours 37° C. in humidified atmosphere of 5% CO2. The experiment is terminated using WST-1 (Roche®) 10 μl per well and absorbance is read at 450 nm %690 nm. The effect of drugs on growth is assessed as percent of cell viability. The IC50 values were determined from the extract dose versus control growth curves using Graphpad Prism® software. All experiments were carried out in duplicate and the mean results determined.

[5] = test system: Normal Bone marrow; assay: Cell viability, normal bone marrow; type: cell-based; conditions: Table 4
Protocol: as §3, with “Bioactivity of the above-described compounds has been verified by an anticancer cell proliferation assay using the WST-1 (4-[3-(4-iodophenyl)-2-(4-nitrophenyl)-2H-5-tetrazolio]-1, 3-benzene disulfonate) colorimetric assay by Roche Life Sciences®. Anticancer” for “Anticancer”

[6] = Table 3, 72 hours, WST-1, read-out: IC50 (μM) MV4-11 (Leukemia)
[7] = Table 4, read-out: Acute Myeloid Leukemia cell lines MV4-11 IC50

T1 sequence (P10721 26-976 L576P): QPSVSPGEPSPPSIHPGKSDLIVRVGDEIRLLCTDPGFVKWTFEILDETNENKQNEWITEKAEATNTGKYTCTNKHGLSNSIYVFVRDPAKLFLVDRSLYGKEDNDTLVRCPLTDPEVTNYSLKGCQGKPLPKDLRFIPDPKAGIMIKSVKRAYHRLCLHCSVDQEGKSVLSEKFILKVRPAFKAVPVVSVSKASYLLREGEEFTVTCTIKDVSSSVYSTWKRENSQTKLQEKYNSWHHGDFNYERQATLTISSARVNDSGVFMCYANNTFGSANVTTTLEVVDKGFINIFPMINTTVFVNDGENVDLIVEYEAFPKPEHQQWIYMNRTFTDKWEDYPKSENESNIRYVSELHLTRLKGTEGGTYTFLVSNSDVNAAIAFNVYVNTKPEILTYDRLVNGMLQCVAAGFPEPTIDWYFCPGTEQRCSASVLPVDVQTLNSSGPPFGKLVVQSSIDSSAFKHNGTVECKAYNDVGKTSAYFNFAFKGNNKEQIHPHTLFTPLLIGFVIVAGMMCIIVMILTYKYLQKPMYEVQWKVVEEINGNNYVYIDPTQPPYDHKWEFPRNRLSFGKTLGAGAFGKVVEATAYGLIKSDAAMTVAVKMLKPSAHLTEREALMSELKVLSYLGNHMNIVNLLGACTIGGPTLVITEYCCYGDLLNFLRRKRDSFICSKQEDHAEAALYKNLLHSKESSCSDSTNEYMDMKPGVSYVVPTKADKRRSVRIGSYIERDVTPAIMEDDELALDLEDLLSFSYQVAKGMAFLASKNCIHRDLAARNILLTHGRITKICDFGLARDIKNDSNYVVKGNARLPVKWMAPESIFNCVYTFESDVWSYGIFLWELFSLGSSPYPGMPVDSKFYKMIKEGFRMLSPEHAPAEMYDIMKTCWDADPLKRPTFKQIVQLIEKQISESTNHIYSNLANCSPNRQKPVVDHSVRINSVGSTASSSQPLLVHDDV

COc1cc(-c2cc(=O)c3c(O)c(C/C=C(\C)CCC=C(C)C)c(O)cc3o2)ccc1O [FBL-03A]
IC50 [1]: 180 nM | IC50 [2]: > 20000 nM

COc1cc(-c2cc(=O)c3c(O)c(CC=C(C)C)c(O)cc3o2)ccc1O [FBL-03B]
IC50 [1]: < 1000 nM | IC50 [3]: 0.92 nM | IC50 [2]: > 10000 nM | IC50 [4, 6]: 1.43 µM

COc1cc(-c2cc(=O)c3c(O)cc(O)c(C/C=C(\C)CCC=C(C)C)c3o2)ccc1O [FBL-03C]
IC50 [1]: > 1000 nM | IC50 [3]: > 1000 nM | IC50 [2]: 340 nM

COc1ccc(-c2cc(=O)c3c(O)c(C/C=C(\C)CCC=C(C)C)c(O)cc3o2)cc1OC [FBL-03D]
IC50 [1]: > 30000 nM | IC50 [3]: > 30000 nM | IC50 [2]: > 30000 nM

COc1cc(-c2cc(=O)c3c(O)cc(O)c(CC=C(C)C)c3o2)ccc1O [FBL-03G]
IC50 [1]: < 1000 nM | IC50 [3]: 2360 nM | IC50 [2]: > 20000 nM | IC50 [4, 6]: 3.1 µM

COc1ccc(C2CC(=O)c3c(O)cc(O)cc3O2)cc1O (centres unmarked) [FBLGS-74]
IC50 [4, 7]: > 100 µM | IC50 [5]: > 100 µM

O=c1cc(-c2ccccc2)oc2cc(O)cc(O)c12 [FBLGS-75]
IC50 [4, 7]: 4.35 µM | IC50 [5]: > 100 µM

Cc1cc2oc(-c3cccc(N)c3)cc(=O)c2c([N+](=O)[O-])c1C [FBLGS-76]
IC50 [4, 7]: 1.9 µM | IC50 [5]: > 100 µM

O=c1cc(-c2ccc(O)c(O)c2)oc2cc(O)cc(O)c12 [FBLGS-77]
IC50 [4, 7]: 7.21 µM | IC50 [5]: > 100 µM

COc1cc(O)c2c(=O)c(O)c(-c3ccc(O)c(O)c3)oc2c1 [FBLGS-78]
IC50 [4, 7]: 5.62 µM | IC50 [5]: > 100 µM

COc1cc(O)c2c(=O)c(O)c(-c3ccc(O)c(O)c3)oc2c1 [FBLGS-79]
IC50 [4, 7]: 3.41 µM | IC50 [5]: > 100 µM

COc1cc(O)c2c(=O)c(O)c(-c3ccc(O)c(OC)c3)oc2c1 [FBLGS-80]
IC50 [4, 7]: 5.86 µM | IC50 [5]: > 100 µM

COc1cc(-c2oc3cc(O)ccc3c(=O)c2O)ccc1O [FBLGS-81]
IC50 [4, 7]: 0.9 µM | IC50 [5]: > 100 µM

O=C1CC(c2ccc(O)c(O)c2)Oc2cc(O)cc(O)c21 (centres unmarked) [FBLGS-82]
IC50 [4, 7]: > 10 µM | IC50 [5]: > 100 µM

O=c1c(O)c(-c2ccc(O)c(O)c2)oc2cc(O)ccc12 [FBLGS-83]
IC50 [4, 7]: 1.6 µM

O=c1c(O)c(-c2ccc(O)c(O)c2)oc2cc(O)cc(O)c12 [FBLGS-84]
IC50 [4, 7]: 6.3 µM | IC50 [5]: > 100 µM

COc1cc(-c2cc(=O)c3c(O)c(OC)c(OC)cc3o2)ccc1O [FBLGS-85]
IC50 [4, 7]: 0.9 µM | IC50 [5]: > 100 µM

COc1cc(-c2cc(=O)c3c(O)c(OC)c(O)cc3o2)ccc1O [FBLGS-86]
IC50 [4, 7]: 2.2 µM | IC50 [5]: > 100 µM
